Results as given in ChEMBL document CHEMBL5137096, “Antiviral Profiling of C-18- or C-19-Functionalized Semisynthetic Abietane Diterpenoids” (J Nat Prod, 2022).
Active and inactive are the calls of the source. The rule behind the calls is not given here.

How the values were obtained:
Zika virus [1] = type: functional, Vero E6; settings: time 72 hrs
Zika virus [2] = type: functional, Vero E6; settings: time 72 hrs; remark: listed apart in the source
dengue virus type 2 [3] = experiment: Antiviral activity against DENV2 infected in hamster BHK-21 cells assessed as inhibition of plaque formation by measuring reduction in PFU per well incubated for 6 days by crystal violet staining based assay; type: functional; settings: time 6 day
dengue virus type 2 [4] = type: functional, Vero E6; settings: time 72 hrs
Human alphaherpesvirus 1 = type: functional, 29R, Vero E6; settings: time 72 hrs
BHK-21 = experiment: Cytotoxicity against golden hamster BHK-21 cells measured after 6 days by MTT assay; type: toxicity, cell-based, Mesocricetus auratus; settings: bhk-21, 144 h, time 6 day
Chikungunya virus = type: functional, Vero E6; settings: time 72 hrs
Vero C1008 = experiment: Cytotoxicity against African green monkey Vero E6 cells measured after 72 hrs by MTT assay; type: toxicity, cell-based; settings: chlorocebus sabaeus, vero c1008, 72 h
Zika virus [5] = experiment: Antiviral activity against ZIKV Col infected in African Green monkey Vero cells assessed as reduction in viral protein production at 3.1 to 25 ug/ml by ELISA relative control; type: functional; parameters: scale not given: the % may be the effect or the level left; settings: dose 3.1-25 µg/ml; at 3.1 to 25 µg/mL
Zika virus [6] = experiment: Antiviral activity against ZIKV IMT17; type: functional, organism-based
Zika virus [7] = experiment: Antiviral activity against ZIKV Col infected in African Green monkey Vero cells assessed as inhibition of viral replication by measuring reduction in viral genomic copies at 12.5 to 25 ug/ml by qRT-PCR analysis; type: functional, organism-based; settings: dose 12.5-25 µg/ml

| Compound | EC (Zika virus [1]) [µg/mL] | EC (Zika virus [2]) [µg/mL] | EC (dengue virus type 2 [3]) [µg/mL] | EC (dengue virus type 2 [4]) [µg/mL] | EC (Human alphaherpesvirus 1) [µg/mL] | CC100 (BHK-21) [µg/mL] | EC (Chikungunya virus) [µg/mL] | CC100 (Vero C1008) [µg/mL] | Activity (Zika virus [5]) [%] | EC50 (Zika virus [6]) [µM] | inhibition (Zika virus [7]) |
| --- | --- | --- | --- | --- | --- | --- | --- | --- | --- | --- | --- |
| CC(C)c1cc2c(cc1O)[C@@]1(C)CCC[C@@](C)(CO)[C@@H]1CC2 [18-HYDROXYFERRUGINOL] | 25 | 12.5 | 3.1 | 25 | 12.5 | 50 | 12.5 | 50 |  |  |  |
| CC(C)c1ccc2c(c1O)CC[C@H]1[C@](C)(C(=O)O)CCC[C@]21C | 25 | 12.5 |  |  |  | > 25 | 25 | > 25 |  |  |  |
| CC(C)c1cc2c(cc1O)[C@@]1(C)CCC[C@@](C)(CN3C(=O)c4ccccc4C3=O)[C@@H]1CC2 | 6.2 | 3.1 | 12.5 | 25 | 12.5 | > 50 | 6.2 | > 50 | <50 | 7.7 | Active |
| CC(C)c1cc2c(cc1O)[C@@]1(C)CCC[C@@](C)(C(=O)O)[C@@H]1CC2=O |  |  |  |  | 25 | 50 | 25 | > 50 |  |  |  |
| NC(=O)c1ncn([C@@H]2O[C@H](CO)[C@@H](O)[C@H]2O)n1 [RIBAVIRIN] |  |  |  |  |  | > 160 |  | > 160 |  |  |  |
| CC(C)c1ccc2c(c1O)CC[C@H]1[C@](C)(CO)CCC[C@]21C | 12.5 |  |  |  |  | > 25 | 12.5 | > 25 |  |  |  |
| CC(C)c1cc2c(cc1O)[C@@]1(C)CCC[C@](C)(C(=O)O)[C@@H]1CC2=O |  |  |  |  |  | 12.5 |  | 25 |  |  |  |
| CC(C)c1cc2c(cc1O)[C@@]1(C)CCC[C@@](C)(C(=O)O)[C@@H]1CC2 |  |  |  |  | 12.5 | 12.5 | 25 | 25 |  |  |  |
| CC(C)c1cc2c(cc1O)[C@@]1(C)CCC[C@](C)(CO)[C@@H]1CC2=O |  |  |  |  | 25 | 25 | 25 | > 25 |  |  |  |
| COC(=O)[C@]1(C)CCC[C@]2(C)c3cc(O)c(C(C)C)cc3C(=O)C[C@@H]12 |  |  |  |  | 25 | 25 | 25 | 50 |  |  |  |
| COC(=O)[C@@]1(C)CCC[C@]2(C)c3cc(C(C)=O)c(C(C)C)cc3CC[C@@H]12 | 25 | 25 |  | 25 | 25 | 50 | 25 | > 50 |  |  |  |
| CC(C)c1ccc2c(c1)CC[C@H]1C(C)(C(=O)O)CCC[C@]21C (stereo not given in full) | 12.5 |  |  | 25 | 25 | 50 | 12.5 | 50 |  |  |  |
| COC(=O)[C@]1(C)CCC[C@]2(C)c3ccc(C(C)C)cc3CC[C@@H]12 | 6.2 | 12.5 |  |  | 25 | 50 |  | > 50 |  |  |  |
| COC(=O)[C@]1(C)CCC[C@]2(C)c3ccc(C(C)C)c(O)c3CC[C@@H]12 | 12.5 |  | 3.1 | 25 | 12.5 | > 25 | 12.5 | > 25 |  |  |  |
| COC(=O)[C@]1(C)CCC[C@]2(C)c3cc(OC(C)=O)c(C(C)C)cc3CC[C@@H]12 |  | 12.5 |  |  | 12.5 | 50 | 25 | 50 |  |  |  |
| CC(C)c1cc2c(cc1O)[C@@]1(C)CCC[C@](C)(C(=O)O)[C@@H]1CC2 [LAMBERTIC ACID] | 25 | 25 |  | 25 | 25 | > 50 | 25 | > 50 |  |  |  |
| COC(=O)[C@@]1(C)CCC[C@]2(C)c3cc(OC(C)=O)c(C(C)C)cc3C(=O)C[C@@H]12 | 25 |  |  |  |  | 25 | 25 | 50 |  |  |  |
| COC(=O)[C@]1(C)CCC[C@]2(C)c3cc(O)c(C(C)C)cc3CC[C@@H]12 |  |  |  |  | 12.5 | 25 | 25 | 50 |  |  |  |
| CC(C)c1cc2c(cc1O)[C@@]1(C)CCC[C@](C)(CO)[C@@H]1CC2 | 12.5 |  |  |  | 12.5 | 12.5 | 25 | 25 |  |  |  |
| COC(=O)[C@]1(C)CCC[C@]2(C)c3cc(OC(C)=O)c(C(C)C)cc3C(=O)C[C@@H]12 |  |  |  |  | 25 | 25 |  | 25 |  |  |  |
| CC(C)c1cc2c(cc1O)[C@@]1(C)CCC[C@@](C)(CO)[C@@H]1CC2=O | 12.5 |  |  | 12.5 | 12.5 | 12.5 | 25 | 25 |  |  |  |
| CC(C)c1cc2c(cc1O)[C@@]1(C)CCCC(C)(C)[C@@H]1CC2 [FERRUGINOL] | 12.5 |  | 12.5 | 25 |  | > 50 | 25 | > 50 |  |  |  |
| COC(=O)[C@]1(C)CCC[C@]2(C)c3cc(C(C)=O)c(C(C)C)cc3CC[C@@H]12 |  |  |  |  | 12.5 | 25 | 25 | > 50 |  |  |  |
| CC(C)c1ccc2c(c1)CC[C@H]1C(C)(CO)CCC[C@]21C (stereo not given in full) | 12.5 |  | 12.5 | 25 |  | > 50 | 25 | > 50 |  |  |  |
| COC(=O)[C@@]1(C)CCC[C@]2(C)c3cc(OC(C)=O)c(C(C)C)cc3CC[C@@H]12 | 12.5 |  |  | 12.5 |  | 25 | 25 | 25 |  |  |  |
| COC(=O)[C@@]1(C)CCC[C@]2(C)c3cc(O)c(C(C)C)cc3C(=O)C[C@@H]12 |  |  |  | 12 |  | 12.5 | 12.5 | 25 |  |  |  |
| Nc1nc2c(ncn2COCCO)c(=O)[nH]1 [ACYCLOVIR] |  |  |  |  | 1.5 |  |  |  |  |  |  |
| COC(=O)[C@@]1(C)CCC[C@]2(C)c3cc(O)c(C(C)C)cc3CC[C@@H]12 | 25 | 12.5 | 12.5 | 25 |  | 50 | 12.5 | > 50 |  |  |  |
